Data published in PMC10482942, “Novel quinazoline-1,2,3-triazole hybrids with anticancer and MET kinase targeting properties” (Scientific Reports, 2023).

Experiments:
[1] = molecular target: T1, FLT3 (h) (Homo sapiens, UniProt P36888); assay: Radiometric kinase panel assay; type: biochemical; conditions: Km ATP
T1 construct: purchased Eurofins Discovery

[2] = test system: K562 cells; assay: SRB antiproliferative assay, monolayer culture; type: cell-based, human; conditions: Homo sapiens, K562, 72 h, mean ± S.E.M.
Protocol: (§1) EBC-1 (human lung […] cells with MET gene amplification) and Mia-Paca-2 (human PDAC cells) were obtained from Japanese Collection of Research Bio Resources Cell Bank (JCRB). AsPC-1 (human PDAC), MKN-45 (human gastric adenocarcinoma cells with MET gene amplification), HT-29 (human colorectal adenocarcinoma), and K562 cells (human chronic myelogenous leukemia) were obtained from the Iranian Biological Resource Centre, Tehran, Iran. AsPC-1, EBC-1, MKN-45, and K562 cells were cultured in RPMI 1640 medium containing 10% heat-inactivated fetal bovine serum (FBS) and 1% penicillin/streptomycin. Mia-Paca-2 and HT-29 cells were grown in DMEM low glucose, containing 10% and 20% heat-inactivated FBS, resoectively and 100 U/ml penicillin/streptomycin. All cells were grown in monolayer cultures at 37 °C in a humidified incubator with 5% CO2.
(§2) Antiproliferative effects of synthetic compounds were evaluated by the SRB assay as described previously. Cancer cells were trypsinized, homogenous cell suspensions were prepared and 100 µl of cell suspensions were cultured at the densities of 5 × 10^4 cells/ml (for AsPC-1 and Mia-Paca-2), 4 × 10^4 cells/m (for EBC-1 and MKN-45), 3 × 10^4 cells/ml (for K562) and 1 × 10^4 cells/ml (for HT-29) in 96-well flat-bottom plates. After 24 h of incubation to allow cells to attach and resume optimal growth, the synthetic compounds dissolved in DMSO and diluted in the growth medium were added. One hundred µl of synthesized derivatives were added at different concentrations in triplicate and incubated for an additional 72 h at 37 °C. The cells were then fixed by gentle addition of 50 μl cold trichloroacetic acid (TCA) 50% (w/v, 10% final concentration) and incubated for 60 min at 4 °C. Then, the supernatant was discarded, and the plates were washed four times with distilled water and air dried. Afterwards, 100 μl of SRB solution 0.04% (w/v) dissolved in 1% acetic acid was added to each well, and plates were incubated for 15 min at room temperature. At the next step, the unbound dye was removed by washing four times with 1% acetic acid and the plates were air dried. The bound stain was finally solubilized with 150 μl of 10 mM Tris base solution, and the absorbance was recorded at a wavelength of 540 nm with a Bio-Tek microplate reader (Model Synergy HTX).

[3] = test system: Mia-Paca-2 cells; assay: SRB antiproliferative assay, monolayer culture; type: cell-based, human; conditions: Homo sapiens, MIA PaCa-2, 72 h, mean ± S.E.M.
Protocol: as §1, §2

[4] = test system: EBC-1 cells; assay: SRB antiproliferative assay, monolayer culture; type: cell-based, human; conditions: Homo sapiens, EBC-1, 72 h, mean ± S.E.M.
Protocol: as §1, §2

[5] = test system: AsPC-1 cells; assay: SRB antiproliferative assay, monolayer culture; type: cell-based, human; conditions: Homo sapiens, ASPC1, 72 h, mean ± S.E.M.
Protocol: as §1, §2

[6] = test system: HT-29 cells; assay: SRB antiproliferative assay, monolayer culture; type: cell-based, human; conditions: Homo sapiens, HT-29, 72 h, mean ± S.E.M.
Protocol: as §1, §2

[7] = test system: MKN-45 cells; assay: SRB antiproliferative assay, monolayer culture; type: cell-based, human; conditions: Homo sapiens, MKN-45, 72 h, mean ± S.E.M.
Protocol: as §1, §2

[8] = molecular target: T2, PDGFRA (h) (Homo sapiens, UniProt P16234); assay: Radiometric kinase panel assay and dose-response; type: biochemical; conditions: for inhibition at 10 µM: radiometric assay, Km ATP
T2 construct: purchased Eurofins Discovery
T2 sequence (P16234 24-1089): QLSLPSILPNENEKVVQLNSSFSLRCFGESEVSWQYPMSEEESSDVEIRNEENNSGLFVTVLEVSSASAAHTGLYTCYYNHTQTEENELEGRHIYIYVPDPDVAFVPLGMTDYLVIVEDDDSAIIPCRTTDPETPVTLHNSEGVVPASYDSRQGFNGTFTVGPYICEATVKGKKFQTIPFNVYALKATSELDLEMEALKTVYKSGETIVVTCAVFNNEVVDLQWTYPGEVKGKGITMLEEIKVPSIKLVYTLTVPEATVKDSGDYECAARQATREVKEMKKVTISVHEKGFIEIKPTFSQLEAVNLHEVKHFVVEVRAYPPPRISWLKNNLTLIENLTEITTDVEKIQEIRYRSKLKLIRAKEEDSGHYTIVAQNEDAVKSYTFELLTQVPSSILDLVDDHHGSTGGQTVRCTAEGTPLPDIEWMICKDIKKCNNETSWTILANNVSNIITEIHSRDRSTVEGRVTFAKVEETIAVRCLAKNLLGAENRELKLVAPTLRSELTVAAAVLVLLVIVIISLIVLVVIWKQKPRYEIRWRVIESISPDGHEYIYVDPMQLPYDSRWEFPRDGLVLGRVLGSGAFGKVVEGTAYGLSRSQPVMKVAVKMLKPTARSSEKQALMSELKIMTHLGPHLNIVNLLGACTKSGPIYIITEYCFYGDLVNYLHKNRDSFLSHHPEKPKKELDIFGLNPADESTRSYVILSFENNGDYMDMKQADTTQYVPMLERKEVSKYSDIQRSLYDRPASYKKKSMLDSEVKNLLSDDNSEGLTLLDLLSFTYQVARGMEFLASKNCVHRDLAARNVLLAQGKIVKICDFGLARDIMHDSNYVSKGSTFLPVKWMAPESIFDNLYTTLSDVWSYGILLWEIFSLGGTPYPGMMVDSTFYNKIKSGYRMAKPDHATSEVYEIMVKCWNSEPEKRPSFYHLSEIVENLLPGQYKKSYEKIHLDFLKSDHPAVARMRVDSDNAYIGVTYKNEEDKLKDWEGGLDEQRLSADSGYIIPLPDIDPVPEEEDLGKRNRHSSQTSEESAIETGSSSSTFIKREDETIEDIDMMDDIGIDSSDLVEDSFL
Protocol: Moreover, a dose–response analysis was performed at six concentrations to determine the activity of compound 8c against PDGFRA kinase, and IC50 value was estimated by curve fitting. The tests were performed by Eurofins Discovery (https://www.eurofinsdiscovery.com).

[9] = molecular target: T3, MET kinase (Homo sapiens, UniProt P08581); assay: MET kinase enzymatic HTRF assay; type: biochemical
T3 construct: purchased Millipore
T3 sequence (P08581 25-1390): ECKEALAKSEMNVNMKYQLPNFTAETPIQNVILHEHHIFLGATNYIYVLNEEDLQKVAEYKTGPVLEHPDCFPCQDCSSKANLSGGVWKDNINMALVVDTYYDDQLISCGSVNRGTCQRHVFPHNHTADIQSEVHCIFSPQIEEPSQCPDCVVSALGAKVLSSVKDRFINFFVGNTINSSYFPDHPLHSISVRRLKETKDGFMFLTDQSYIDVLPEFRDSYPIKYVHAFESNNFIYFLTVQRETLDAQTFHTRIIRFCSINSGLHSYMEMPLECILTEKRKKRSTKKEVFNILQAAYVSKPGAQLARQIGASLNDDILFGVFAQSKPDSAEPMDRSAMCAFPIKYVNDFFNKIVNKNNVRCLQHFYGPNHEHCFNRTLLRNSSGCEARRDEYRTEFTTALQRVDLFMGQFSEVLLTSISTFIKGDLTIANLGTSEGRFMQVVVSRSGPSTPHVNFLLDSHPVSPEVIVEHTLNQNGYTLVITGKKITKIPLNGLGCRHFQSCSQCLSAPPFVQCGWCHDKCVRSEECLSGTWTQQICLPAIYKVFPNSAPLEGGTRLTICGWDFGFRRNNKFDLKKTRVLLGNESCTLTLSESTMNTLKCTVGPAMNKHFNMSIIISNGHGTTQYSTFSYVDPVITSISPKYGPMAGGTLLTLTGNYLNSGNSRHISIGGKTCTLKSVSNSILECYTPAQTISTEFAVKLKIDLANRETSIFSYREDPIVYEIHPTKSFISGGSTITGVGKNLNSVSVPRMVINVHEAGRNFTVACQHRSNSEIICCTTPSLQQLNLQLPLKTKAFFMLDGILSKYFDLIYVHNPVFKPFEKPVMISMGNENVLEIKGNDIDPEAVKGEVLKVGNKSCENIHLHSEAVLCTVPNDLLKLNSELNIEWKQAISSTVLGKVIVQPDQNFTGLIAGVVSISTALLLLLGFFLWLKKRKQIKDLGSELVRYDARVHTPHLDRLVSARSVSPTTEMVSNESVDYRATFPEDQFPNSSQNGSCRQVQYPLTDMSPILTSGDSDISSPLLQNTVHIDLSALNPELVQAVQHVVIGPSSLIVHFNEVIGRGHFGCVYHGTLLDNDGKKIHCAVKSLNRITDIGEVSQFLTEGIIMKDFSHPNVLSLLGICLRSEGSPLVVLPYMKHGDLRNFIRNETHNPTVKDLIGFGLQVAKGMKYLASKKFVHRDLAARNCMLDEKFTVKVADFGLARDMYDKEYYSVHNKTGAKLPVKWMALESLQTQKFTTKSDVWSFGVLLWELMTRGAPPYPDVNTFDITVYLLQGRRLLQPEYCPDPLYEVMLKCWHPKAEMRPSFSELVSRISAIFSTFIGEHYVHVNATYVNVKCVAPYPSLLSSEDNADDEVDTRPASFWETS
Protocol: HTRF assay detects the phosphorylation level of a biotinylated tyrosine kinase substrate peptide (TK substrate) by MET kinase. The HTRF® KinEASE™ TK kit and MET kinase were purchased from Cisbio and Millipore, respectively. The optimal conditions for enzyme, substrate, ATP concentrations, and enzymatic reaction times were set.
In order to prepare the test compounds, after dissolving in DMSO, they were diluted in the reaction buffer containing 50 mM HEPES pH 7.0, 0.1 mM sodium orthovanadate, 0.01% BSA, 0.02% NaN3, 10 mM MgCl2, 5 mM MnCl2, 2 mM DTT. […] Finally, the Time Resolved-Fluorescence Resonance Energy Transfer (TR-FRET) signal was measured after an hour of incubation at room temperature.
The following equations were used to determine the inhibition rate (%): Ratio665/620=Emission665 nm/Emission620nm ΔR=Ratio Sample665/620-Ratio Background665/620∗100/Ratio Background665/620 Inhibition%=ΔRControl-ΔRSample∗100/ΔRControl
Background samples contained all reagents except for the enzyme. Control wells contained the same amount of DMSO contained in the sample.

[10] = molecular target: T4, ABL (h) (Homo sapiens, UniProt P00519); assay: Radiometric kinase panel assay; type: biochemical; conditions: Km ATP
T4 construct: purchased Eurofins Discovery

[11] = molecular target: T5, TRKA (h) (Homo sapiens, UniProt P04629); assay: Radiometric kinase panel assay; type: biochemical; conditions: Km ATP
T5 construct: purchased Eurofins Discovery

[12] = molecular target: T6, ALK (h) (Homo sapiens, UniProt Q9UM73); assay: Radiometric kinase panel assay; type: biochemical; conditions: Km ATP
T6 construct: purchased Eurofins Discovery
T6 sequence (Q9UM73 19-1620): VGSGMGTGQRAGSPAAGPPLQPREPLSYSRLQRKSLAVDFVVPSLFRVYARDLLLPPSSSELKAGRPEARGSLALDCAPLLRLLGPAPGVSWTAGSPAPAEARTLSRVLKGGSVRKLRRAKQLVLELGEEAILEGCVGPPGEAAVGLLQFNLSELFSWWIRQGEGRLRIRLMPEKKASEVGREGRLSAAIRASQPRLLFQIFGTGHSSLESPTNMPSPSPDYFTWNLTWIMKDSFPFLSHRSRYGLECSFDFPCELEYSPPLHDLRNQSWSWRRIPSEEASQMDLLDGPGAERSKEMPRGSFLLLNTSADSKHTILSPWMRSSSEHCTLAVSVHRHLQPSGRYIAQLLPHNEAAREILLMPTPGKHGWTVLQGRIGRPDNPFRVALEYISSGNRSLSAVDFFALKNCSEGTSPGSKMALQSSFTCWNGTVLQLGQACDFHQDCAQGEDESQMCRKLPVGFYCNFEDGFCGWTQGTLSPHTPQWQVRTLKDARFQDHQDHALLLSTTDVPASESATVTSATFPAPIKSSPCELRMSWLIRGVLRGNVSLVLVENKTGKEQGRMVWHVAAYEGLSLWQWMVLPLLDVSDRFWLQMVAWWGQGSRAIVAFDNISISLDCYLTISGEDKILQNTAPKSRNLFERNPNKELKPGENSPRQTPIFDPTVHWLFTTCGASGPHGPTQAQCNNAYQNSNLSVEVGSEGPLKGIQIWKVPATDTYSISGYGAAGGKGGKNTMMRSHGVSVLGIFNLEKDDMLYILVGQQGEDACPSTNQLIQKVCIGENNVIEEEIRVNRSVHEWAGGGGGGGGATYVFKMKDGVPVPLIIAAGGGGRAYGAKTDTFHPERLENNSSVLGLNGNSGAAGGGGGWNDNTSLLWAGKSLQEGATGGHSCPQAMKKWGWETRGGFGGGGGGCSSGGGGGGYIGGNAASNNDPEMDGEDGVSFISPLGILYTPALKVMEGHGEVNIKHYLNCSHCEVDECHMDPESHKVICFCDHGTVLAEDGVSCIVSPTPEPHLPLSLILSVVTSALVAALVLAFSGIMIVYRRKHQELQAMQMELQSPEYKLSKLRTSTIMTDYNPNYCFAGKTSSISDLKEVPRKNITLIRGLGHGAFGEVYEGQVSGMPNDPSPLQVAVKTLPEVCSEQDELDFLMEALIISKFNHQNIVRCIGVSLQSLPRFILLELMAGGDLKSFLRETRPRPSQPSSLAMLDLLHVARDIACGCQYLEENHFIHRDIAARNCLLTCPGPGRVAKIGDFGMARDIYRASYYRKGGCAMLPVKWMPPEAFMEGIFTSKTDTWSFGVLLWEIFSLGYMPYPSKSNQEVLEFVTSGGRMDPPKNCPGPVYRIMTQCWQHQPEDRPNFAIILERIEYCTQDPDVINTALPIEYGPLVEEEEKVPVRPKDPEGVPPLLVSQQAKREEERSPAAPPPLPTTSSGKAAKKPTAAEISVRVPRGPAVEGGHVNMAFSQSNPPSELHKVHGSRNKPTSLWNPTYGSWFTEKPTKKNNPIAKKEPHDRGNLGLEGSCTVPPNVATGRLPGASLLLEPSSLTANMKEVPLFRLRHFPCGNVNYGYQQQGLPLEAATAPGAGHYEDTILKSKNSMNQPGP

[13] = molecular target: T7, KIT (h) (Homo sapiens, UniProt P10721); assay: Radiometric kinase panel assay; type: biochemical; conditions: Km ATP
T7 construct: purchased Eurofins Discovery

T1 sequence (P36888 27-993): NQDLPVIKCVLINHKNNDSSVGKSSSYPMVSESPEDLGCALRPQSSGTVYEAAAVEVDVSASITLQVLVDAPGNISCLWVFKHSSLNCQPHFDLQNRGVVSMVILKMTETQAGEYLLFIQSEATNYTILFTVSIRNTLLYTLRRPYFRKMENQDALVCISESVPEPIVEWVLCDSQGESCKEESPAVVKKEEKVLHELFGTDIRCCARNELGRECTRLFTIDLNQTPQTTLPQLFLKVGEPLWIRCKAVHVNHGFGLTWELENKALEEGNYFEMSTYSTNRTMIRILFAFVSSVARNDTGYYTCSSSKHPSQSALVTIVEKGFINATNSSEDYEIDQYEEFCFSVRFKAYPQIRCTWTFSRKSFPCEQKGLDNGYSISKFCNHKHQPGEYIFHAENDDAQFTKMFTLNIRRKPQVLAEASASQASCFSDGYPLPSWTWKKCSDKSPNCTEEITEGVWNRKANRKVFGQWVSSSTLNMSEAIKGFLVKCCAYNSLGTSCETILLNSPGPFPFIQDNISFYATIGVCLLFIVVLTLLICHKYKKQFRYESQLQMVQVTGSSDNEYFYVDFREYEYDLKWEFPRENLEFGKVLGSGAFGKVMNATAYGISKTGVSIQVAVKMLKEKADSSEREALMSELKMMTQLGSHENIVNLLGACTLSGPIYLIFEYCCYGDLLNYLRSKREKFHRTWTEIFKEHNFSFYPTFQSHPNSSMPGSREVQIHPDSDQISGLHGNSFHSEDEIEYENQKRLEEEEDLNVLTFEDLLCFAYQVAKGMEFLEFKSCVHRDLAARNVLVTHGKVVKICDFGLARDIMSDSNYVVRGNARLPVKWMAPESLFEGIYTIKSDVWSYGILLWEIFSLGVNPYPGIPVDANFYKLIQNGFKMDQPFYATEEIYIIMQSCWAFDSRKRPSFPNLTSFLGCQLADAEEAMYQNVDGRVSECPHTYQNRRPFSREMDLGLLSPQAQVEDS

Compound `Cc1ccc(Cn2cc(COc3ccc(C=NNc4ncnc5ccccc45)cc3)nn2)cc1` [Compound 8c, 2-(4-((1-(4-Methylbenzyl)-1H-1,2,3-triazol-4-yl)methoxy)benzylidene)-1-(quinazolin-4-yl)hydrazine] has an inhibition at 10 µM [1] of 8%, an IC50 [2] of 31.5 ± 6.4 µM and an IC50 [3] of 25.6 ± 2.4 µM. It also gave an IC50 [4] of 19 ± 0.7 µM, an IC50 [5] of 15.3 ± 2.3 µM and an IC50 [6] of 21 ± 4.7 µM. For the same compound, the IC50 [7] was 22 ± 4.8 µM, the inhibition at 10 µM [8] was 58% and the IC50 ([8]; dose-response at six concentrations, curve fitting, read-out: PDGFRA kinase inhibition IC50) was 7.1 µM. For the same compound, the IC50 ([9]; HTRF assay, read-out: MET kinase inhibition IC50) was 36 ± 9.5 µM, the inhibition at 10 µM [10] was 8% and the inhibition at 10 µM [11] was 13%. For the same compound, the inhibition at 10 µM [12] was 3% and the inhibition at 10 µM [13] was 7%.
For `CC(C)(C)c1ccc(Cn2cc(COc3ccc(C=NNc4ncnc5ccccc45)cc3)nn2)cc1` [Compound 8h, 2-(4-((1-(4-Tert-butylbenzyl)-1H-1,2,3-triazol-4-yl)methoxy)benzylidene)-1-(quinazolin-4-yl)hydrazine], the inhibition at 10 µM [1] was 18%, the IC50 [2] was 34.4 ± 6.4 µM and the IC50 [3] was 11.5 ± 0.8 µM. The IC50 [4] was 6.1 ± 1 µM, the IC50 [5] was 9.7 ± 1.9 µM and the IC50 [6] was 8.6 ± 1.3 µM. It also gave an IC50 [7] of 12 ± 3.9 µM, an inhibition at 10 µM [8] of 46% and an inhibition at 10 µM ([9]; at 10 μM, mean ± S.E.M., read-out: Inhibitory effect against MET kinase) of 22 ± 7.4%. For the same compound, the inhibition at 25 µM ([9]; at 25 μM, mean ± S.E.M., read-out: Inhibitory effect against MET kinase) was 25.7 ± 4.7%, the inhibition at 50 µM ([9]; at 50 μM, mean ± S.E.M., read-out: Inhibitory effect against MET kinase) was 32.9 ± 2.2% and the inhibition at 10 µM [10] was 17%. The inhibition at 10 µM [11] was 28%, the inhibition at 10 µM [12] was 14% and the inhibition at 10 µM [13] was 2%.
